The target of experiment [1] is T1, Bile acid receptor (Homo sapiens) (UniProt Q96RI1).
T1 sequence (whole entry): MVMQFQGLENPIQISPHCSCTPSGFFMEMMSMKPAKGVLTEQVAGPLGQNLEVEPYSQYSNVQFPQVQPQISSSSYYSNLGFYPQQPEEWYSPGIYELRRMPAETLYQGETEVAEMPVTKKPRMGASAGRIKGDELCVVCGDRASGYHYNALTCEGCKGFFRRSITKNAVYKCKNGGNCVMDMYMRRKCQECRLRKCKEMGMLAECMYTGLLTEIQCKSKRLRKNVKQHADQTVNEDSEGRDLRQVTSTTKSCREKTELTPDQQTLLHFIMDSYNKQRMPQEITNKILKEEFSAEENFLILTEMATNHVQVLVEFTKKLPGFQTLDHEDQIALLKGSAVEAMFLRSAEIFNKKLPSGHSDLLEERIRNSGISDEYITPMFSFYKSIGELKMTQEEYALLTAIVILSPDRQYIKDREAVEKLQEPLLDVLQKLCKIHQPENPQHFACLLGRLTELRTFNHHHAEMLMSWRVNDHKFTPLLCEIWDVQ
The experiment in a line: Agonist activity at FXR (unknown origin) transfected into african green monkey CV1 cells assessed as ligand-mediated transcription by luciferase reporter/ transient transfection assay relative to GW4064. The experiment is classed as cell-based. Particulars: CV-1. On the technique in general: In a reporter assay the amount or activity of a reporter protein is the signal.

For experiment [2], the target named is T1, Bile acid receptor (Homo sapiens). In words: Agonist activity at FXR (unknown origin) assessed as ligand-mediated interaction of the SRC1 peptide with protein LBD by FRET assay relative to GW4064.
Experiment [3] deals with T2, Bile acid receptor (Homo sapiens, UniProt Q96RI1).
T2 sequence (Q96RI1 whole entry): T1 sequence (whole entry)
The experiment in a line: Agonist activity at FXR (unknown origin) assessed as ligand-mediated interaction of the SRC1 peptide with protein LBD by FRET assay.

The target of experiment [4] is T2, Bile acid receptor. In words: Agonist activity at FXR (unknown origin) transfected into african green monkey CV1 cells assessed as ligand-mediated transcription by luciferase reporter/ transient transfection assay. The experiment is classed as cell-based, CV-1.

A word on the Emax: it is the greatest response seen or fitted, relative to the assay's reference. As usually defined, the EC50 is the concentration giving half of the maximal effect.

For the compound `CC(C)n1cnc(COc2c(Cl)cccc2Cl)c1COc1ccc(/C=C/c2cccc(C(=O)O)c2)c(Cl)c1`, the results for the Emax in experiment [1] and in experiment [2] were 62% and 88%, respectively. Besides, the EC50 on Bile acid receptor [3] amounted to 309 nM; on Bile acid receptor [4], 562 nM.
The like results for `CC(C)c1oc(=O)n(Cc2c(Cl)cccc2Cl)c1COc1ccc(/C=C/c2cccc(C(=O)O)c2)c(Cl)c1` were, in that order, 104%, 90%, 110 nM and 54 nM.
The like results for `CC(C)c1oc(=O)n(CCc2c(Cl)cccc2Cl)c1COc1ccc(/C=C/c2cccc(C(=O)O)c2)c(Cl)c1` were, in that order, 82%, 99%, 66 nM and 35 nM.
The like results for `CC(C)n1nnc(-c2c(Cl)cccc2Cl)c1COc1ccc(/C=C/c2cccc(C(=O)O)c2)c(Cl)c1` were, in that order, 47%, 80%, 123 nM and 145 nM.
Take `CC(C)c1cnn(-c2c(Cl)cccc2Cl)c1COc1ccc(/C=C/c2cccc(C(=O)O)c2)c(Cl)c1`: the Emax is 100% in experiment [1] and 105% in experiment [2]. Besides, the concentration giving a half-maximal response (EC50) was 42 nM on Bile acid receptor [3] and 20 nM at Bile acid receptor [4].
For `CC(C)c1occ(COc2c(Cl)cccc2Cl)c1COc1ccc(/C=C/c2cccc(C(=O)O)c2)c(Cl)c1`, the Emax in experiment [2] amounted to 51%. Besides, the figures for the concentration for a half-maximal effect (EC50) at Bile acid receptor [3] and on Bile acid receptor [4] (cv-1) were 1230 nM and under 10000 nM, respectively.
Regarding `CC(C)c1nnn(-c2c(Cl)cccc2Cl)c1COc1ccc(/C=C/c2cccc(C(=O)O)c2)c(Cl)c1`, the Emax in experiment [1] came to 125%; in experiment [2], 106%. Further, the EC50 at Bile acid receptor [3] amounted to 112 nM; on Bile acid receptor [4], 35 nM.
The like results for `CC(C)c1ncn(CCc2c(Cl)cccc2Cl)c1COc1ccc(/C=C/c2cccc(C(=O)O)c2)c(Cl)c1` were, in that order, 35%, 49%, 617 nM and 676 nM.

The values are drawn from ChEMBL document CHEMBL3352747, “Novel heterocyclic scaffolds of GW4064 as farnesoid X receptor agonists” (Bioorg Med Chem Lett, 2015).
